Patent publication US4749710A, “Immunosuppressive agents” (priority 1985, dated 1988)
Like-named read-outs stand apart in the source and are kept apart here.

Key:
Format in all cases: cell-based
[1] = test system: IgG production by human lymphocytes; test: Inhibition of IgG production by human lymphocytes in vitro (SAC activation, ELISA); conditions: 8 days, vehicle control 0.78 ± 0.09
Text: (§1) General Test Description Humoral immunity comprises one of the two major arms of the immune system and generally is beneficial. However, a number of disease states are characterized by a hyperactive immune system responding to self tissue antigens. […] In these diseases it would be important to suppress the humoral immune system.
(§2) In the following studies we used established methods to examine the effect of Vitamin D derivatives on the in vitro production of immunoglobulin (Ig) by human peripheral blood leukocytes (PBL) following polyclonal activation. Immunoglobulin was induced from PBL by co-culturing the PBL with the polyclonal B cell activator Staphylococcus aureus strain Cowan I (SAC) for a period of 8 days. The quantity of Ig produced in the culture supernatants was determined by using an enzyme linked immunosorbent assay (ELISA). The effect of Vitamin D derivatives was determined by comparing the amount of antibody produced in cultures containing Vitamin D derivatives to those cultures containing an appropriate concentration of vehicle (ethanol).
(§3) Solutions of vitamin D derivatives. Stock solutions of vitamin D derivatives were prepared as described previously for the murine CTL experiments.
(§4) INDUCTION OF HUMAN IG SECRETION Human peripheral blood mononuclear leukocytes were prepared from one day old buffy coat preparations obtained from the American Red Cross (Lansing, MI). […] Twenty five ml of this preparation were overlayed onto 25 ml of Ficoll-Paque contained in a 50 ml polypropylene centrifuge tube. After centrifugation at 400×g at 15° C. for 40 min, the cells at the interface of the medium and Ficoll were removed and washed 3 times in 50 ml RPMI medium and centrifuged at 300×g for 10 minutes. After the final centrifugation,the cell pellet was suspended in RPMI medium containing 20% fetal bovine serum (FBS) and 80 μg/ml gentamicin. The number of viable cells was determined by trypan blue exclusion and were then suspended to 2.5×10^6 viable cells per ml in RPMI containing 20% FBS and gentamicin. Human PBL were induced to secrete Ig as follows. One hundred microliters of the PBL suspension and an additional 100 μl of a 1:20,000 (v/v) preparation of SAC suspended in RPMI containing 1% FBS were added to each well of a 96-well microtiter plate. Selected wells were also set up without the addition of SAC to serve as negative controls (spontaneous Ig secretion). Each well then received 20 μl of either the appropriate dilution of Vitamin D derivative in RPMI with 1% ethanol or RPMI with 1% ethanol (vehicle control). The vitamin D derivatives were tested at final concentrations of 10^-5, 10^-6, 10^-7, 10^-8, 10^-9, and 10^-10 M and in all cases the vehicle (ethanol) concentration was 0.1%. All treatments were performed in triplicate. […] The samples were then either assayed immediately or stored at -20° C. until assayed by the ELISA technique described below.
(§5) QUANTITATION OF SECRETED IG (ELISA ASSAY) ELISA plates were prepared for quantitating human IgG and IgM levels in culture supernatants as follows. Affinity purified sheep anti-human IgG and goat anti-human IgM (Cappel, Cochranville, PA) were diluted 1:250 and 1:400 respectively, in carbonate coating buffer (0.05M sodium bicarbonate, 0.05M sodium carbonate, 0.15M sodium chloride). One hundred and fifty microliters of the antibody preparation were added to each well of a 96 well ELISA plate (EIA, Costar). The plates were sealed and incubated overnight at 4° C. and on the following day were washed 3 times with distilled water. Each well then received 350 μl of Dulbecco's PBS containing 1 mg/ml bovine serum albumin (BSA) and 0.5 mg/ml sodium azide. The plates were allowed to incubate for 1 hour at 37° C. and then washed 3 times with Dulbecco's PBS containing 0.5% stock Tween 20 (PBS-Tween) followed by 2 washes with distilled water. The plates were air dried and stored desiccated under a vacuum at 4° C. until use.

[2] = test system: IgM production by human lymphocytes; test: Inhibition of IgM production by human lymphocytes in vitro (SAC activation, ELISA); conditions: 8 days, vehicle control 2.49 ± 0.17
Text: as §1, §2, §3, §4, §5

[3] = test system: human cytotoxic T-lymphocyte responses; test: Inhibition of human CTL responses (mixed leukocyte-tumor cultures, HT-144 melanoma, ^51 Cr release); conditions: donor I, 0.01% ethanol, effector to target 6:1; for inhibition at 1 µM / inhibition at 0.1 µM / inhibition at 10 µM: Homo sapiens, T-lymphocyte, read-out: Inhibition of CTL activity (%)
Method: Human cells for the tests described below were taken from four donors designated I, II, III, and IV in the tables below.
Stock solutions of Vitamin D derivatives were prepared as they were prepared above in the murine tests.
Human cytotoxic T-lymphocytes were generated in mixed leukocyte-tumor cultures by known methods. Specifically, blood from normal volunteer donors was drawn into heparinized syringes, diluted 1:1 with calcium-magnesium free Hanks' balanced salt solution (Ca-Mg free HBSS), and layered over lymphocyte separation medium (Litton Bionetics, Kensington, MD). After centrifugation at 500xg for 20-30 min at room temperature, peripheral blood mononuclear cells were harvested from the interface. The peripheral blood mononuclear leukocytes were centrifuged and resuspended in Ca-Mg free HBSS and were subsequently separated from platelets by centrifugation at 500xg through a solution of 20% sucrose and 1% human AB serum in Ca-Mg free HBSS. The cells were washed once and finally resuspended in tissue culture medium. […] Cells to be used as stimulator cells in mixed leukocyte-tumor cultures were irradiated with 10,000 rads of gamma irradiation to preclude proliferation in culture. Mixed leukocyte-tumor cell cultures were established in 16 mm tissue culture wells at a final volume of 1.5 ml per well containing 2×10^6 peripheral blood mononuclear leukocytes and 5×10^4 irradiation-inactivated stimulator cells. In order to prevent the generation of nonspecific cytotoxic cells in these cultures, hydrocortisone sodium succinate was added to each culture at a final concentration of 1×10^-5 M. Mixed leukocyte-tumor cultures were incubated for 6 days in a humidified atmosphere of 5% CO2 in air.
Labelled target cells were washed free of unbound isotope by 3 serial washes in tissue culture medium and were finally resuspended at a concentration of 5×10^4 cells per ml.
Assays of human cytotoxic T-lymphocytes were done by known methods. Specifically, one-tenth ml aliquots of ^51 Cr-labelled target cell suspension were added to "half area" microtest plates and were incubated at 37° C. for 18 hours in a humidified atmosphere of 5% CO2 in air to permit the cells to adhere and spread on the floor of each well. Culture medium was then aspirated from each well and was replaced with 0.1 ml of tissue culture medium containing cells harvested from mixed leukocyte-tumor cultures which had been processed as described for murine mixed leukocute cultures, above. Control wells for measurement of spontaneous ^51 Cr release received medium without effector cells and wells for measurement of maximal releasable ^51 Cr received 0.1 ml of 2% sodium dodecyl sulfate in distilled water. After overnight incubation at 37° in a humidified atmosphere of 5% CO2 in air, 0.05 ml of cell-free supernatant was withdrawn from each well and the amount of released ^51 Cr was quantitated using a gamma spectrometer. The percentage of specific ^51 Cr release (CTL activity) and the percent inhibition of CTL activity were calculated with the same formulas used above for the murine CTL assay.
Tests conducted on human cytotoxic T-lymphocyte responses are reported as the mean±standard error of the mean from triplicate ^51 Cr release determinations on pooled cells from duplicate control or test cultures.

C=C1/C(=C\C=C2/CCC[C@]3(C)[C@@H]([C@H](C)CCCC(C)(C)O)CC[C@@H]23)C[C@@H](O)C[C@@H]1F [1α-F--25-OH--D3, 1α-Fluoro-25-hydroxycholecalciferol]
IgG μg per culture (x ± S.E.M.) ([1]; 1 × 10^-6 molar): undetectable
IgG μg per culture (x ± S.E.M.) ([1]; 1 × 10^-7 molar): 0.08 ± 0.05 μg per culture
IgG μg per culture (x ± S.E.M.) ([1]; 1 × 10^-8 molar): 0.14 ± 0.05 μg per culture
IgG μg per culture (x ± S.E.M.) ([1]; 1 × 10^-9 molar): 0.18 ± 0.001 μg per culture
IgG μg per culture (x ± S.E.M.) ([1]; 1 × 10^-10 molar): 0.45 ± 0.11 μg per culture
IgM μg per culture (x ± S.E.M.) ([2]; 1 × 10^-6 molar): undetectable
IgM μg per culture (x ± S.E.M.) ([2]; 1 × 10^-7 molar): 0.38 ± 0.30 μg per culture
IgM μg per culture (x ± S.E.M.) ([2]; 1 × 10^-8 molar): 1.83 ± 0.29 μg per culture
IgM μg per culture (x ± S.E.M.) ([2]; 1 × 10^-9 molar): 3.10 ± 0.10 μg per culture
IgM μg per culture (x ± S.E.M.) ([2]; 1 × 10^-10 molar): 4.48 ± 0.75 μg per culture

C=C1/C(=C\C=C2/CCC[C@]3(C)[C@@H]([C@H](C)CC[C@@H](F)C(C)(C)O)CC[C@@H]23)C[C@@H](O)C[C@@H]1O [24R-F--1α,25-(OH)2 --D3, 1α,25-Dihydroxy-24R-fluorocholecalciferol]
IgG μg per culture (x ± S.E.M.) ([1]; 1 × 10^-6 molar): undetectable
IgG μg per culture (x ± S.E.M.) ([1]; 1 × 10^-7 molar): 0.01 ± 0.002 μg per culture
IgG μg per culture (x ± S.E.M.) ([1]; 1 × 10^-8 molar): 0.10 ± 0.02 μg per culture
IgG μg per culture (x ± S.E.M.) ([1]; 1 × 10^-9 molar): 0.22 ± 0.05 μg per culture
IgG μg per culture (x ± S.E.M.) ([1]; 1 × 10^-10 molar): 0.21 ± 0.06 μg per culture
IgM μg per culture (x ± S.E.M.) ([2]; 1 × 10^-6 molar): undetectable
IgM μg per culture (x ± S.E.M.) ([2]; 1 × 10^-7 molar): 0.12 ± 0.06 μg per culture
IgM μg per culture (x ± S.E.M.) ([2]; 1 × 10^-8 molar): 1.23 ± 0.03 μg per culture
IgM μg per culture (x ± S.E.M.) ([2]; 1 × 10^-9 molar): 3.13 ± 0.41 μg per culture
IgM μg per culture (x ± S.E.M.) ([2]; 1 × 10^-10 molar): 3.84 ± 0.72 μg per culture
inhibition at 1 µM ([3]; Test 1, 1 × 10^-6 molar): 87%
inhibition at 0.1 µM ([3]; Test 1, 1 × 10^-7 molar): 62%
inhibition at 10 µM ([3]; Test 2, 1 × 10^-5 molar): 94%
inhibition at 1 µM ([3]; Test 2, 1 × 10^-6 molar): 100%
CTL activity (% specific ^51 Cr release) ([3]; Test 1, 1 × 10^-6 molar): 7 ± 6 % specific ^51 Cr release
CTL activity (% specific ^51 Cr release) ([3]; Test 1, 1 × 10^-7 molar): 20 ± 1 % specific ^51 Cr release
CTL activity (% specific ^51 Cr release) ([3]; Test 2, 1 × 10^-5 molar): 3 ± 4 % specific ^51 Cr release
CTL activity (% specific ^51 Cr release) ([3]; Test 2, 1 × 10^-6 molar): 0 ± 3 % specific ^51 Cr release

C=C1/C(=C\C=C2/CCC[C@]3(C)[C@@H]([C@H](C)CCC(F)(F)C(C)(C)O)CC[C@@H]23)C[C@@H](O)C[C@@H]1O [24,24-(F)2 --1α,25-(OH)2 --D3, 1α,25-Dihydroxy-24,24-difluorocholecalciferol]
IgG μg per culture (x ± S.E.M.) ([1]; 1 × 10^-6 molar): undetectable
IgG μg per culture (x ± S.E.M.) ([1]; 1 × 10^-7 molar): undetectable
IgG μg per culture (x ± S.E.M.) ([1]; 1 × 10^-8 molar): 0.01 ± 0.003 μg per culture
IgG μg per culture (x ± S.E.M.) ([1]; 1 × 10^-9 molar): 0.02 ± 0.02 μg per culture
IgG μg per culture (x ± S.E.M.) ([1]; 1 × 10^-10 molar): 0.11 ± 0.03 μg per culture
IgM μg per culture (x ± S.E.M.) ([2]; 1 × 10^-6 molar): undetectable
IgM μg per culture (x ± S.E.M.) ([2]; 1 × 10^-7 molar): undetectable
IgM μg per culture (x ± S.E.M.) ([2]; 1 × 10^-8 molar): undetectable
IgM μg per culture (x ± S.E.M.) ([2]; 1 × 10^-9 molar): undetectable
IgM μg per culture (x ± S.E.M.) ([2]; 1 × 10^-10 molar): 0.50 ± 0.12 μg per culture
inhibition at 1 µM ([3]; Test 1, 1 × 10^-6 molar): 71%
inhibition at 0.1 µM ([3]; Test 1, 1 × 10^-7 molar): 81%
inhibition at 10 µM ([3]; Test 2, 1 × 10^-5 molar): 83%
inhibition at 1 µM ([3]; Test 2, 1 × 10^-6 molar): 91%
CTL activity (% specific ^51 Cr release) ([3]; Test 1, 1 × 10^-6 molar): 15 ± 1 % specific ^51 Cr release
CTL activity (% specific ^51 Cr release) ([3]; Test 1, 1 × 10^-7 molar): 10 ± 1 % specific ^51 Cr release
CTL activity (% specific ^51 Cr release) ([3]; Test 2, 1 × 10^-5 molar): 9 ± 2 % specific ^51 Cr release
CTL activity (% specific ^51 Cr release) ([3]; Test 2, 1 × 10^-6 molar): 5 ± 2 % specific ^51 Cr release
